Measured values as given in US6090787A, “Antithrombotic agents” (Eli Lilly and Company, priority 1999, dated 2000).
Square brackets hold non-standard residues; d marks the D form. Peptide text beside a SMILES is read from it. dPip = O=C(O)[C@H]1CCCCN1; Sar = CNCC(=O)O

Columns and labels:
factor Xa = target: T1, factor Xa (Homo sapiens, UniProt P00742); test: Serine protease selectivity, Kass, factor Xa chromogenic assay; format: biochemical; settings: apparent association constant
T1 construct: Human factors X, Xa, IXa, XIa, and XIIa are purchased from Enzyme Research Laboratories; purchased Enzyme Research Laboratories, South Bend, Ind
Method: (§1) By substantially following the procedures described above for human thrombin, and using other human blood coagulation system serine proteases and proteases of the fibrinolytic system with the appropriate chromogenic substrates, identified below, selectivity of the compounds of the present invention with respect to the coagulation factor serine proteases and with respect to the fibrinolytic system serine proteases are evaluated as well as their substantial lack of interference with serine proteases of the fibrinolytic system. Thrombin inhibitors preferably should spare fibrinolysis induced by urokinase, tissue plasminogen activator (t-PA) and streptokinase. This would be important to the therapeutic use of such agents as an adjunct to streptokinase, t-PA or urokinase thrombolytic therapy and to the use of such agents as an endogenous fibrinolysis-sparing (with respect to t-PA and urokinase) antithrombotic agent. In addition to the lack of interference with the amidase activity of the fibrinolytic proteases, such fibrinolytic system sparing can be studied by the use of human plasma clots and their lysis by the respective fibrinolytic plasminogen activators.
(§2) Human factors X, Xa, IXa, XIa, and XIIa are purchased from Enzyme Research Laboratories, South Bend, Ind.; human urokinase from Leo Pharmaceuticals, Denmark; and recombinant activated Protein C (aPC) is prepared at Eli Lilly and Co. substantially according to U.S. Pat. No. 4,981,952 incorporated by reference herein in its entirety. Chromogenic substrates: N--Benzoyl--Ile--Glu--Gly--Arg--p--nitroanilide (for factor Xa); N--Cbz--D--Arg--Gly--Arg--p--nitroanilide (for factor IXa assay as the factor Xa substrate); Pyroglutamyl--Pro--Arg--p--nitroanilide (for Factor XIa and for aPC); H--D--Pro--Phe--Arg--p--nitroanilide (for factor XIIa); and Pyroglutamyl--Gly--Arg--p--nitroanilide (for urokinase); are purchased from KabiVitrum, Stockholm, Sweden, or from Midwest Biotech, Fishers, Indiana. Bovine trypsin is purchased from Worthington Biochemicals, Freehold, N.J., and human plasma kallikrein from Kabi Vitrum, Stockholm, Sweden. Chromogenic substrate H--D--Pro--Phe--Arg--p--nitroanilide for plasma kallikrein is purchased from Kabi Vitrum, Stockholm, Sweden. N--Benzoyl--Phe--Val--Arg--p--nitroanilide, the substrate for human thrombin and for trypsin, is synthesized according to procedures described above for the compounds of the present invention, using known methods of peptide coupling from commercially available reactants or purchased from Midwest Biotech, Fishers, Ind.

Bovine trypsin = target: T2, Bovine trypsin (Bos taurus, UniProt P00760); test: Serine protease selectivity, Kass, trypsin chromogenic assay; format: biochemical; settings: apparent association constant
T2 construct: purchased Worthington Biochemicals, Freehold, N.J
T2 sequence (P00760 24-246): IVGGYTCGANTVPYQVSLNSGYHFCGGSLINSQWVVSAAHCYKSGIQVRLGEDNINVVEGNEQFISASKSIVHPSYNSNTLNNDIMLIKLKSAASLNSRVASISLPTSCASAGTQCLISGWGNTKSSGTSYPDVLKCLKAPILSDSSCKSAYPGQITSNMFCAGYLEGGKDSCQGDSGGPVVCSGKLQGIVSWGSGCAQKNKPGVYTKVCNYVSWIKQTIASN
Method: as §1, §2

human plasma [1] = test: Human plasma anticoagulation, thrombin time (TT); settings: concentration required to double the thrombin time, linear extrapolation
Method: (§3) Dog plasma and rat plasma is obtained from conscious mixed-breed hounds (either sex, Hazelton-LRE, Kalamazoo, Mich., U.S.A.) or from anesthetized male Sprague-Dawley rats (Harlan Sprague-Dawley, Inc., Indianapolis, Ind., U.S.A.) by venipuncture into 3.8 percent citrate. Fibrinogen is prepared from in-date ACD human blood as the fraction I-2 according to previous procedures and specifications. Smith, Biochem. J., 185, 1-11 (1980); and Smith, et al., Biochemistry, 11, 2958-2967 (1972). Human fibrinogen is also purchased as 98 percent pure/plasmin free from American Diagnostica, Greenwich, Conn. Coagulation reagents ACTIN, Thromboplastin, and Human plasma are from Baxter Healthcare Corp., Dade Division, Miami, Fla. Bovine thrombin from Parke-Davis ([…], Mich.) is used for coagulation assays in plasma.
(§4) Coagulation assay procedures are as previously described. Smith, et al., Thrombosis Research, 50, 163-174 (1988). A CoAScreener coagulation instrument (American LABor, Inc.) is used for all coagulation assay measurements. The prothrombin time (PT) is measured by adding 0.05 mL saline and 0.05 mL Thromboplastin-C reagent to 0.05 mL test plasma. The activated partial thromboplastin time (APTT) is measured by incubation of 0.05 mL test plasma with 0.05 mL Actin reagent for 120 seconds followed by 0.05 mL CaCl2 (0.02 M). The thrombin time (TT) is measured by adding 0.05 mL saline and 0.05 mL thrombin (10 NIH units/mL) to 0.05 mL test plasma. The compounds of formula I are added to human or animal plasma over a wide range of concentrations to determine prolongation effects on the APTT, PT, and TT assays. Linear extrapolations are performed to estimate the concentrations required to double the clotting time for each assay.

human plasma [2] = test: Human plasma anticoagulation, prothrombin time (PT); settings: concentration required to double the PT, linear extrapolation
Method: as §3, §4

T1 sequence (P00742 235-488 limits assumed): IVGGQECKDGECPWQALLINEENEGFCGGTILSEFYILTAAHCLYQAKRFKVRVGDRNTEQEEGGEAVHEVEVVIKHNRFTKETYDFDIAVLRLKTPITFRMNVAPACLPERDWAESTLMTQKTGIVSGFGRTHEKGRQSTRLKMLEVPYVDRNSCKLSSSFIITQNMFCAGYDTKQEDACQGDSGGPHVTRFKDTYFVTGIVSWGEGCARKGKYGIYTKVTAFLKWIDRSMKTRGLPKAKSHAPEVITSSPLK
T1 sequence (P00742 41-179 partner limits assumed): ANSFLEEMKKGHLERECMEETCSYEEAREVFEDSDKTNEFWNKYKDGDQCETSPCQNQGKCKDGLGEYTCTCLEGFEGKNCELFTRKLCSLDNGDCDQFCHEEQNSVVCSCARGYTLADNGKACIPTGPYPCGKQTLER

CN(CC(=O)N[C@H](C=O)CCCNC(=N)N)C(=O)[C@H]1CCCCN1.Cl.Cl [Example 1, D-homoprolyl-N-methylglycyl-L-argininal dihydrochloride] (H-[dPip]-[Sar]-Arg-aldehyde)
Enzyme Kass Xa (factor Xa): 0.13 L/mol × 10^6
Enzyme Kass Trypsin (Bovine trypsin): 0.88 L/mol × 10^6
Human Plasma Anticoagulation 2 × Clotting time TT (human plasma [1]): 160 ng/mL
Human Plasma Anticoagulation 2 × Clotting time PT (human plasma [2]): 4,800 ng/mL

CC(C)CCN(CC(=O)N[C@H](C=O)CCCN=C(N)N)C(=O)[C@H]1CCCCN1.Cl.Cl [Example 6, D--hPro--N(isoamyl)Gly--ArgH.2HCl]
Enzyme Kass Xa (factor Xa): 0.071 L/mol × 10^6
Enzyme Kass Trypsin (Bovine trypsin): 5.9 L/mol × 10^6
Human Plasma Anticoagulation 2 × Clotting time TT (human plasma [1]): 170 ng/mL
Human Plasma Anticoagulation 2 × Clotting time PT (human plasma [2]): 2,600 ng/mL

Cl.Cl.N=C(N)NCCC[C@@H](C=O)NC(=O)CN(CCc1ccccc1)C(=O)[C@H]1CCCCN1 [Example 8, D-homoprolyl-N-(2-phenylethyl)glycyl-L-argininal dihydrochloride]
Enzyme Kass Xa (factor Xa): 4.4 L/mol × 10^6
Enzyme Kass Trypsin (Bovine trypsin): 2.7 L/mol × 10^6
Human Plasma Anticoagulation 2 × Clotting time TT (human plasma [1]): 64 ng/mL
Human Plasma Anticoagulation 2 × Clotting time PT (human plasma [2]): 2,000 ng/mL
